Data set [1] relates to mice with LPS-induced endotoxemia. As to the kind of experiment: LPS-induced endotoxemia in WT mice. Format: in vivo, C57BL/6 mice. How it is done:
FIG. 4 AdipoAI protects against LPS-induced endotoxemia. Endotoxemia was induced in WT mice by intraperitoneal injection with LPS ([…]), and control littermates were administered with equivalent volumes of PBS. APR or AdipoAI were orally gavaged into mice for 24 hours before LPS challenge and control animals were administered with equivalent volumes of DMSO. (a) mRNA expression levels of pro-inflammatory cytokines in lung, spleen, liver and WAT were measured by qRT-PCR and normalized with GAPDH mRNA levels. Data are shown as mean±SEM (n=6). (b) Survival curve of mice with endotoxemia (n=12). (c) Serum levels of IL-6 and IL-1β were measured by ELISA. Data are expressed as mean±SEM (n=6). (d) Histopathology for lung, spleen, liver and WAT tissues isolated from APR- or AdipoAI-treated mice 24 h before LPS challenge (n=6). Upper panel: Hematoxylin and cosin staining; Lower panel: Immunohistochemical staining for macrophage marker F4/80. Red arrow indicates F4/80 positive cells. One-way ANOVA test for multiple-group comparisons, * vs. DMSO+PBS group, # vs. DMSO+LPS group. */#P<0.05, significant differences between each indicated group. ns, not significant.
The Ethics Committee on the Use and Care of Animals at Tufts University approved the study protocol (Boston, MA, USA). The animals received humane care according to the criteria outlined in the Guide for the Care and Use of Laboratory Animals prepared by the National Academy of Sciences and published by the National Institutes of Health. All experiments involving animals or animal tissue are reported in compliance with the guidelines of ARRIVE and BJP (Kilkenny et al., 2010; McGrath and Lilley, 2015). Experimental protocols and design adhere to BJP guidelines (Curtis et al., 2015). Wild-type (WT, C57BL/6J, Jax #000664), DIO (Jax #380050), and APN KO (Jax #008195) mice were purchased from the Jackson Laboratory. The DIO mice were fed with a high-fat diet (containing 60% kcal from fat; Jackson Laboratory) at 6 weeks of age and later. The WT mice were fed with ordinary diet as normal chow (NC)-fed mice, and APN KO mice were maintained and fed with an NC diet as previously described (Tu et al., 2011). For the LPS-induced endotoxemia model, male C57BL/6 mice aged 8 weeks received oral gavage with APR (50 mg/kg body weight) or AdipoAI (25 mg/kg body weight) for 24 h before by LPS (20 mg/kg body weight) treatment which was administered intraperitoneally whereas control animals were treated with equivalent volumes of normal PBS. Mouse survival in each group was monitored and recorded up to 84 h. All mice were killed at 1 h for detection of activation of inflammatory genes, at 6 h for determination of inflammatory factors in serum, and at 24 h for histological evaluation. Animal data were excluded from experiments based on pre-established criteria of visible abnormal tissue structure during sample harvest or other health issues, including fighting wounds.

The test system of the next data set is LPS-induced BMMs. The experiment in a line: ELISA of IL-6 and IL-1β in supernatants of LPS-induced BMMs. Format: cell-based, C57BL/6J mice. Conditions: AdipoAI 5 μM 24 h then LPS 6 h. As for the experimental part: FIG. 2 AdipoAI suppresses LPS-stimulated inflammatory responses in macrophages. (a) Raw264.7 cells or (b) BMMs were pretreated with APR (20 μM) or AdipoAI (5 μM) for 24 h followed by incubation with LPS (100 ng/mL) for additional 6 h for the measurement of IL-6 and IL-1β in supernatants by ELISA. Data were expressed as the mean±SEM at five biological independent experiments. One-way ANOVA test for multiple-group comparisons, * vs. LPS group, *P<0.05, significant differences between each indicated group. (c) PEMs were isolated from C57BL/6J mice (n=5 mice/group) were injected i.p. with ImL 4% thioglycolate solution or AdipoAI (25 mg/kg) for the measurement of IL-6 and IL-1β. The amounts of IL-6 and IL-1β in supernatant were measured by ELISA. Data were expressed as the mean±SEM (n=5). Two-tailed Student's t-test for two groups, *P<0.05, significant differences between each indicated group. (d-f) Impact of AdipoAI on basal (d) and LPS-induced expression of an array of proinflammatory cytokines, chemokines, and receptors (e,f) in Raw264.7 cells (4 groups and 3 biological replicates/group). Data analyses were performed according to the manufacturer's instructions with their web-based software package (www.qiagen.com/us/shop/genes-and-pathways/data-analysis-center overview-page/). […]

Protocol for RAW 264.7 cells: RAW 264.7 cells were treated with receptor activator of nuclear factor KB ligand (RANKL) (100 ng/ml) for 2 days with or without AdipoRon (20 μM) or AdipoAI (5 μM) for another 2 days. […] (C) The CCK-8 analysis of RAW 264.7 cells treated with 20 μM AdipoRon or 5 μM AdipoAI for 48 h. (D) The CCK-8 analysis of RAW 264.7 cells' proliferation at different doses of APR and AdipoAI. Cells were treated with 100 ng/ml RANKL for 2 days with or without AdipoRon (5, 20 μM) or AdipoAI (5, 20 μM) every 2 days for 4 days. […] Data are shown as mean±SD., compared with the vehicle-treated group, *P<0.05. **P<0.01. ***P<0.001.
RAW 264.7 cells (2×10^3 cells/well) were seeded in 96-well plates and treated with or without AdipoRon or AdipoAI for 48 hours in a humidified chamber at 37° C. in 5% CO2 and air. Cell viability was determined with the Cell Counting Kit-8 (CCK-8 kit, Dojindo, Santa Clara, CA, USA) following the manufacturer's recommendations. Briefly, CCK-8 solution (10 μL) was added to each well and cells were incubated in dark for 3 hours. Cell viability was determined by measuring the absorbance at 450 nm.

As for `COc1ccc(CN2CCC(NC(=O)COc3ccc(C(=O)c4ccc(Cl)cc4)cc3)CC2)cc1` [Compound 3], the “serum levels of IL-6 and IL-1β” value in data set [1] (6 h post-LPS administration) was “reduced serum levels of pro-inflammatory cytokines IL-6 and IL-1β”. Also, the lung histopathology result in data set [1] (24 h, LPS-challenged mice) is “fewer lung lesions and decreased inflammatory cell infiltration”. The molecule also gave a survival rate in data set [1] (84 h post-LPS challenge, vehicle 12.5%) of 40%. The “LPS-induced spleen, liver and WAT injury and inflammatory responses” value in data set [1] (LPS-challenged mice) is reported as “alleviated”. Also, in data set [1] (LPS-challenged mice, qPCR and IHC), the “c-Maf mRNA and protein levels in lung, spleen, liver and WAT” value is reported as “decreased”. For the same molecule, the “expression of TNF-α in tissues” value in data set [1] (LPS-induced endotoxemia mice (sentence also covers DIO mice)) was “did not inhibit the expression of TNF-α”. Moreover, in data set [1] (oral gavage 24 h before LPS challenge), the “mRNA levels of proinflammatory genes in lung, spleen, WAT, liver” value is “decreased mRNA levels of proinflammatory genes”. Also, the “number of RAW 264.7 cells (CCK-8) at 20 μM” value in the data set on RAW 264.7 cells was “reduced cell number”. The “number of RAW 264.7 cells (CCK-8) at 5 μM” value with RAW 264.7 cells (mouse, 48 h, 5 μM) was “did not reduce the number of RAW 264.7 cells”. In the data set on LPS-induced BMMs, the “IL-6 and IL-1β protein levels (ELISA)” value is “decreased IL-6 and IL-1β protein levels”.
